# Source: US20090291934A1, “Method for decomposing an allergen” (Shinshu TLO Co., Ltd., priority 2003, published 2009)
# Key:
# guinea pig skin [1] = conditions: sensitized with 0.1% DNCB, induced by 0.1% DNCB, 48 hours after inducing
# guinea pig skin [2] = experiment: Sensitization experiment with rays in guinea pig skin (Adjuvant and Strip method); type: in vivo, guinea pig (Crj; Hartley); conditions: sensitized with 5% 6-MC
# Description: The procedures were repeated for 5 days and the guinea pigs were sensitized with rays.
# In the comparative group of the medium, the guinea pigs were injected with to sensitize and induced by dimethylsulfoxide. […] As the positive comparative group, the guinea pigs were injected with 5% 6-methylcoumarin (6-MC) to sensitize, and induced by 1% 6-MC.
# rabbit eye mucosa = experiment: Irritation experiment on rabbit eye mucosa; type: in vivo, rabbit (Japanese White); conditions: for irritation on the rabbit eye mucosa (Kay and Calandra classification): 100 mg powder
# Description: Male rabbits at the age of 10 weeks (Japanese White, Kb1:JW(SPF)) were prepared for a washed group (n=3) and a non-washed group (n=3). After pre-bred for 7 days, the rabbits were confirmed normality about changes of body weight and health condition. On the preceding day, they were confirmed about normality of eyes macroscopically and no injury of cornea by fluoresceine staining (fluor-paper, Lot No. 3990849 available from Wyeth-Ayerest Laboratories, USA) using slitlamp (type SL-5: available from Kowa Company, Ltd.) to prepare for experiment.
# 100 mg of iron phthalocyanine tetracarboxylic acid powder, which was screened through a mesh having 300 μm of aperture once, was put into right conjunctiva of each rabbit, and upper and lower eyelids were gently kept closed for about one second. In the washed group, to remove powder, the conjunctiva was washed with 230-330 mL of lukewarm water at 30 seconds after putting to remove the powder. The left conjunctiva of each rabbit wasn't treated in both groups. The cornea, iris and the conjunctiva in both groups were compared with non-treated eye as reference at 1, 24, 48 and 72 hours after putting. […] The observation results were scored following Draize scoring criteria (Appendix 3), and the irritation was evaluated following Kay and Calandra classification (Appendix 4).
# rats = experiment: Toxicity experiment by oral injection of solution dissolving the decomposer to rats (for once)
# Description: They were divided into each group according to their body weights measured before housed by a continuous stratified sampling method. Extra rats caused by the method were excluded from the experiment and euthanized.
# Following the medical toxicity test guideline, the amount of injection was determined 2000 mg/kg, technical upper limit of oral injection. A comparative group, which a comparative material of purified water in the Japanese Pharmacopoeia was injected, was also prepared. 10 male rats and 10 female rats were divided into two groups respectively.
# Their health conditions and life or death were observed continuously before the injection of the solution, at 5, 15, 30 minutes, 1, 2, and 4 hours after the injection, and once a day as from the following day. They were weighed before the injection of the solution, and at 9:00-12:00 on 1, 3, 7, 10, 14th day after the injection. After all the observations, their organs and tissues in heads, chests and abdomens were researched whether normal or not.
# [3] = tested on: fibroblasts derived from Chinese hamster lung (CHL/IU cell); experiment: Experiment on chromosome aberration by using mammalian cells; type: cell-based; conditions: positive comparative group, short time
# Description: The experiment on chromosome aberration was examined as follows. The experiment doses of the test material were determined by the inhibition experiment of increasing cells. As a result of the inhibition experiment of increasing cells, the concentration of test material in 50% inhibition experiment of increasing cells was 5.0 mg/mL or more in −S9mix method treating in a short time. And the concentration thereof was 0.840 mg/mL in +S9mix method treating in a short time.
# As the negative comparative, the non-treating group and the comparative group of the medium were prepared, and as the positive comparative, the mitomycin C (0.05 μg/mL)-treating group was prepared.
# Under this experiment, colcemid (available from GIBCO/Lot No. 1125546) was added to laboratory dishes for chromosome specimens to the last concentration of 0.2 μg/mL at 2 hours before making specimens so that cell divisions were stopped in the middle of the division period. After 2 hours, the culture solutions in the laboratory dishes were moved into a conical bottom tube. […] Furthermore, the laboratory dishes prepared for the cell increasing rate were fixed and stained in the same method as the inhibition experiment of increasing cells described above, and the cell increasing rate was measured. […]
# Tick antigen Derf II = target: T1, Tick antigen Derf II (Dermatophagoides farinae, UniProt Q00855); experiment: Two-dimensional electrophoresis of tick allergen with and without Fe-Pc-COOK; type: biochemical; conditions: Derf II sol. with 0.1 or 0.5 w/v % Fe-Pc-COOK (A) vs tick allergen only (B), silver stain
# T1 construct: purchased ASAHI BREWERIES, LTD
# T1 sequence (Q00855 18-146): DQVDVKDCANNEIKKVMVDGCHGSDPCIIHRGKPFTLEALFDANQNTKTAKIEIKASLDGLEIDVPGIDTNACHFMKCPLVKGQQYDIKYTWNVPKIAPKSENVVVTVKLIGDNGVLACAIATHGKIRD
# Text: Tick antigen Derf II (available from ASAHI BREWERIES, LTD.) was chosen between the allergens, and we compared electrophoresis of the tick allergen containing iron phthalocyanine tetracarboxylic acid with that of the allergen only.
# Iron phthalocyanine tetracarboxylic acid potassium salt (Fe-Pc-COOK) aqueous solution and Derf II solution, which appropriate concentrations (w/v %) were mentioned in Table 4, were mixed with swelling stock solution containing IPG (Immobilized pH Gradient) buffer (8 mol/L Urea, 2 w/v % CHAPS, 2% IPG Buffer, appropriate amount of Bromophenol blue, and distilled water) to prepare experimental solutions of preparing examples 1-4 in Table 4.
# Whereas Derf II solution was mixed with swelling stock solution containing IPG buffer to prepare experimental solutions of comparative preparing examples 1-4 in Table 4.
# One-dimensional electrophoresis gel films (Strip) of Strip pH4-7 and Strip pH 3-10.5 were prepared, soaked in each experimental solution containing appropriate amount of silicon oil for preventing dry, and treated for 10 hours. After being pulled up and washed, each Strip was subjected to one-dimensional electrophoresis containing silicon oil for preventing dry for 16 hours. […]
# guinea pig skin [4] = experiment: Toxicity experiment with rays in guinea pig (Morikawa et al. method); type: in vivo, guinea pig (Crj; Hartley); conditions: 0.03 mL of 0.05% 8-methoxypsoralen, UV, all spread parts
# Description: In the comparative group of the medium, the clipped backs of the guinea pigs were open spread by 0.03 mL of dimethylsulfoxide.
# As the positive comparative group, the clipped backs of the guinea pigs were open spread by 0.03 mL of 0.05% 8-methoxypsoralen. After 30 minutes, they were exposed to ultraviolet rays (about 11.2 Joules/cm^2). The reactions on the skins were evaluated at 24 and 48 hours after exposing to rays.
molecule,measurement,setting,value
"O=[N+]([O-])c1ccc(Cl)c([N+](=O)[O-])c1 [DNCB, 2,4-dinitrochlorobenzene]",positive rate,guinea pig skin [1],100%
"Cc1ccc2oc(=O)ccc2c1 [Example 6-MC, 6-methylcoumarin]",erythema score,guinea pig skin [2]; induced by 1% 6-MC and exposed to ultraviolet rays,2-4
same,evaluation of sensitization with rays,"guinea pig skin [2]; induced by 1% 6-MC, all guinea pigs",positive
iron phthalocyanine tetracarboxylic acid,irritation on the rabbit eye mucosa (Kay and Calandra classification),rabbit eye mucosa; non-washed group,moderately irritating
same,irritation on the rabbit eye mucosa (Kay and Calandra classification),rabbit eye mucosa; washed group (washed 30 seconds after putting),practically nonirritating
same,time by which reaction of the conjunctiva disappeared,rabbit eye mucosa; non-washed group,≤ 10 days
same,time by which reactions of the cornea and the iris disappeared,"rabbit eye mucosa; non-washed group, after putting",≤ 72 h
same,time by which slight red conjunctiva disappeared,"rabbit eye mucosa; washed group, after putting",≤ 24 h
same,death during the experiment,"rats; 2000 mg/kg oral once, observed 14 days",no male and female rat
same,minimum lethal dose,"rats; oral once, male and female rats",≥ 2000 mg/kg
CN(C)N=O [DMN],appearance frequency of cells whose chromosomes were abnormal structurally,[3]; +S9mix method,37.5%
"CO[C@@]12[C@H](COC(N)=O)C3=C(C(=O)C(C)=C(N)C3=O)N1C[C@@H]1N[C@@H]12 [MMC, mitomycin C]",appearance frequency of cells whose chromosomes were abnormal structurally,[3]; -S9mix method,16%
Iron phthalocyanine tetracarboxylic acid potassium salt,effect on tick allergen spots in two-dimensional electrophoresis gel,Tick antigen Derf II,Disappearance of the spots between pH 5-6
COc1c2occc2cc2ccc(=O)oc12 [8-methoxypsoralen],skin action score,guinea pig skin [4],4
